The source of these data is patent US20230339854A1, “Negative Allosteric Modulation of GluN3-Containing N-Methyl-D-Aspartate Receptors” (Emory University, priority 2020, published 2023).

The target of data set [1] is T1, human GluN1^FA,TL/GluN3A receptors (Homo sapiens, UniProt Q8TCU5).
T1 construct: Human GluN3A (NP_597702.2) and rat GluN3B (NP_579842.2) were synthesized and subcloned into SP6 plasmids; expressed in transfected cells; host or cells: Xenopus laevis oocytes, cRNA injection (GluN1:GluN3 1:3)
T1 sequence (Q8TCU5 24-1115, other chains not shown): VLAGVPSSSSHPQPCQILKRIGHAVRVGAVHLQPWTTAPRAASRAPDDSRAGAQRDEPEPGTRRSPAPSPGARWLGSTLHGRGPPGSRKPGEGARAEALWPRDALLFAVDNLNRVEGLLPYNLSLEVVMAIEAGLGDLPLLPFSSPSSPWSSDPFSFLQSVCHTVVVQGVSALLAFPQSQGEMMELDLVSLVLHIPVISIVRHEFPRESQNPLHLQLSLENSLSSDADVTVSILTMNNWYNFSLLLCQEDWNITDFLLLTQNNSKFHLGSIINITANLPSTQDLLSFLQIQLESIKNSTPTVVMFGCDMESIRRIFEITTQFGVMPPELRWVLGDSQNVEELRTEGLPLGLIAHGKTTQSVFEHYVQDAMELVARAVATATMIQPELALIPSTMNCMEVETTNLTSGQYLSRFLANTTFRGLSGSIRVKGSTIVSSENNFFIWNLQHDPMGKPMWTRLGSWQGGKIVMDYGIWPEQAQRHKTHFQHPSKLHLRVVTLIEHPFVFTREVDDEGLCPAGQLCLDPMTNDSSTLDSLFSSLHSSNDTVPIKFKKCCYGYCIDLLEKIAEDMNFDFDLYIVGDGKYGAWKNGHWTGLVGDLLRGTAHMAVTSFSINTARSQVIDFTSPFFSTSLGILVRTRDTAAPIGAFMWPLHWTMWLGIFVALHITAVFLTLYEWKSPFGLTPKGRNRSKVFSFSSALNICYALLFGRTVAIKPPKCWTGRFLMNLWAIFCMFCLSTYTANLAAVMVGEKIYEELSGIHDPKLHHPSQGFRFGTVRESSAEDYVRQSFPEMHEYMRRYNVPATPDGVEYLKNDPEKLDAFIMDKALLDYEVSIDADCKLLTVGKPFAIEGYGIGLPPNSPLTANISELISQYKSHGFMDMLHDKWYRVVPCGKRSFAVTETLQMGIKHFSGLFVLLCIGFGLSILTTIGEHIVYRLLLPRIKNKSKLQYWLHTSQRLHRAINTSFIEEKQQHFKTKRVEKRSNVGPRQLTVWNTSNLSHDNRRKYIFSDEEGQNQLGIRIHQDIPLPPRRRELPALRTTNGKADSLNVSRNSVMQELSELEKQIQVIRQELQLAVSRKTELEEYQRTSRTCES
Description: Two-electrode voltage-clamp recordings of GluN1^FA,TL/GluN3A receptors in Xenopus oocytes. The data set is classed as cell-based. As to conditions: for % Inhibition GluN1^FATL/GluN3A: fitted maximum at saturating test compound. The method in brief:
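Human GluN1 with human GluN3A cRNA (1:3) in oocytes, recorded 2-5 days post-injection at 23° C, holding −40 mV, in Ba2+-containing recording solution pH 7.4. Compounds screened at 10 or 30 μM; those inhibiting >20% given concentration-response fits for IC50, Hill slope and residual inhibition.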

Data set [2] concerns the target T2, rat GluN1-4a^FA,TL/GluN3B receptors (Rattus norvegicus, UniProt Q8VHN2).
T2 construct: Human GluN3A (NP_597702.2) and rat GluN3B (NP_579842.2) were synthesized and subcloned into SP6 plasmids; expressed in transfected cells; host or cells: Xenopus laevis oocytes, cRNA injection
Description: Two-electrode voltage-clamp recordings of GluN1-4a^FA,TL/GluN3B receptors (Xenopus oocytes). The data set is classed as cell-based. From the text: cDNA encoding human wild-type (WT) GluN1-1a (GenBank accession numbers NP_015566, hereafter GluN1) and rat GluN1-1a (NP_058706.1) were synthesized and subcloned into pGEMHE plasmid; some experiments used the rat splice variant GluN1-4a (NP_001257531.1). Human GluN3A (NP_597702.2) and rat GluN3B (NP_579842.2) were synthesized and subcloned into SP6 plasmids. For most experiments, human GluN1 was co-expressed with human GluN3A, except for mutagenesis experiments where rat GluN1 was co-expressed with human GluN3A. Rat GluN1-4a was always expressed with rat GluN3B.
Defolliculated Xenopus laevis oocytes (stage V-VI) were obtained from Ecocyte BioScience (Austin, Texas), or prepared from commercially available Xenopus ovaries (Xenopus 1, Dexter, MI) as previously described (Hansen, et al., Mol. Pharmacol., 2013). A Drummond Nanoject II (Broomall, PA) was used to inject oocytes with cRNAs encoding GluN1 and GluN3 at a 1:3 ratio in RNase-free water. The cRNA was diluted as needed to give responses with amplitudes ranging between 200-2000 nA (0.2-10 ng total cRNA). […] Recording electrodes were filled with 0.3-3.0 M KCl, and current responses were recorded at a holding potential of −40 mV. […]
For orientation: Two-electrode voltage clamp holds a large cell at a set potential and records current.

Data set [3] deals with GluN1/GluN3A channels (Mus musculus, UniProt A2AIR5). Description: Nonstationary variance analysis of neuronal glycine-evoked current responses. It is filed as cell-based. As to conditions: 30 μM; VHOLD −60 mV. On the procedure:
Nonstationary variance analysis (Perszyk, et al., Nat. Chem. Biol., 2020, 16(2), 188-196) was conducted on the deactivation phase of the neuronal glycine-evoked current responses bathed in vehicle (control) or 30 μM EU1180-438 (VHOLD: −60 mV). […] The current was divided into 50 equally spaced segments, and the mean current amplitude of each segment was determined. The current was high pass filtered with a cutoff of 1 Hz, and the current variance was determined for 50 segments. The plot of variance vs. current for each response was fitted by the equation:
Variance=iI−I^2/N • where I is the current amplitude of macroscopic response, i is the weighted mean unitary current, and N is the channel numbers. Virtually identical results were found if the current-variance relationship for all 10 responses for each cell were averaged and then fitted by the foregoing equation. Chord conductance y was determined assuming 0 mV for the reversal potential.
Some allosteric modulators with molecular determinants in the pre-M1 can reduce single channel conductance for glutamate receptors (Perszyk, et al., Nat. Chem. Biol., 2020, 16(2), 188-196; Yuan, et al., ACS Med. Chem. Lett., 2019, 10 (3), 237-242). […]

The nature of data set [4]: Maximum solubility by nephelometry. It is filed as physicochemical. As to conditions: aqueous buffer, kinetic from dmso stock; oocyte recording buffer (pH 7.4). The procedure:
The maximum solubility for the synthesized compounds was determined using a BMG Labtech Nephelostar™ nephelometer according to the manufacturer's instructions. For example, EU1180-438 was taken up in DMSO to prepare a 10 mM stock solution. The 10 mM solution was serially diluted into eleven concentrations (10, 5, 2.5, 1.25, 0.625, 0.3125, 0.1563, 0.0781, 0.0391, 0.0193, and 0.0098 mM) at the top of a clear-bottom 96-well plate. These were then each distributed into the subsequent 7 wells in 2.5 μL increments and diluted 100-fold (2.5 μL to 250 μL) with oocyte recording buffer (pH 7.4) into concentrations of 100, 50, 25, 12.5, 6.25, 3.125, 1.563, 0.781 0.391, 0.193, and 0.098 μM. The 96-well plate was shaken gently for 90 minutes before analysis.

Structures are written as SMILES. ≈ marks a conversion by molar mass, not a printed value. Like-named read-outs stand apart in the source and are kept apart here.

T2 sequence (Q8VHN2 25-1002, other chains not shown): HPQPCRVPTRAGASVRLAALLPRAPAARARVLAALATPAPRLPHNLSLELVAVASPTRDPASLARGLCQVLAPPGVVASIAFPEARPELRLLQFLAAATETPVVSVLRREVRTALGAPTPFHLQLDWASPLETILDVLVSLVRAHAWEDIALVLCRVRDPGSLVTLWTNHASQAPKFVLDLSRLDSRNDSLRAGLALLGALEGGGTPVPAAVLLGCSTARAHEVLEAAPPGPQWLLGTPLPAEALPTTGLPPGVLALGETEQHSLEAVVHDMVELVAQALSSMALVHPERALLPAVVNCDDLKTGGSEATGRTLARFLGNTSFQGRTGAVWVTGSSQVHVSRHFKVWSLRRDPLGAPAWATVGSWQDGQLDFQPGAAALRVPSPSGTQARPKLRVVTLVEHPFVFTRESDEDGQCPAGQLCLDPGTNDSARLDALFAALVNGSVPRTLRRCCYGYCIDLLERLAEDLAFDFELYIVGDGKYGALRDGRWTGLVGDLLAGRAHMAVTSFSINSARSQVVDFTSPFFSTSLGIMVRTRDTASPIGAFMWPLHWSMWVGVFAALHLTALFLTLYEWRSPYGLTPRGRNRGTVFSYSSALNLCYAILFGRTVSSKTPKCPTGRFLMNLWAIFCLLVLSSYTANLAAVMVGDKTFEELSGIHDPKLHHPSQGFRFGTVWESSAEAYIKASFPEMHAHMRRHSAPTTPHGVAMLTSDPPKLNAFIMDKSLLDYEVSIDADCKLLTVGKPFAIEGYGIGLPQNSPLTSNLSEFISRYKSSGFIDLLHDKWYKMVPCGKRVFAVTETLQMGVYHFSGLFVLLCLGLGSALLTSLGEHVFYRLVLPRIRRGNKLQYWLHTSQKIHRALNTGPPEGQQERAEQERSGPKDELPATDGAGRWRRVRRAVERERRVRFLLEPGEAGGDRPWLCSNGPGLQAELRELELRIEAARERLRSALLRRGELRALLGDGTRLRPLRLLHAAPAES
Chain of GluN1/GluN3A channels (A2AIR5 27-1135, other chains not shown): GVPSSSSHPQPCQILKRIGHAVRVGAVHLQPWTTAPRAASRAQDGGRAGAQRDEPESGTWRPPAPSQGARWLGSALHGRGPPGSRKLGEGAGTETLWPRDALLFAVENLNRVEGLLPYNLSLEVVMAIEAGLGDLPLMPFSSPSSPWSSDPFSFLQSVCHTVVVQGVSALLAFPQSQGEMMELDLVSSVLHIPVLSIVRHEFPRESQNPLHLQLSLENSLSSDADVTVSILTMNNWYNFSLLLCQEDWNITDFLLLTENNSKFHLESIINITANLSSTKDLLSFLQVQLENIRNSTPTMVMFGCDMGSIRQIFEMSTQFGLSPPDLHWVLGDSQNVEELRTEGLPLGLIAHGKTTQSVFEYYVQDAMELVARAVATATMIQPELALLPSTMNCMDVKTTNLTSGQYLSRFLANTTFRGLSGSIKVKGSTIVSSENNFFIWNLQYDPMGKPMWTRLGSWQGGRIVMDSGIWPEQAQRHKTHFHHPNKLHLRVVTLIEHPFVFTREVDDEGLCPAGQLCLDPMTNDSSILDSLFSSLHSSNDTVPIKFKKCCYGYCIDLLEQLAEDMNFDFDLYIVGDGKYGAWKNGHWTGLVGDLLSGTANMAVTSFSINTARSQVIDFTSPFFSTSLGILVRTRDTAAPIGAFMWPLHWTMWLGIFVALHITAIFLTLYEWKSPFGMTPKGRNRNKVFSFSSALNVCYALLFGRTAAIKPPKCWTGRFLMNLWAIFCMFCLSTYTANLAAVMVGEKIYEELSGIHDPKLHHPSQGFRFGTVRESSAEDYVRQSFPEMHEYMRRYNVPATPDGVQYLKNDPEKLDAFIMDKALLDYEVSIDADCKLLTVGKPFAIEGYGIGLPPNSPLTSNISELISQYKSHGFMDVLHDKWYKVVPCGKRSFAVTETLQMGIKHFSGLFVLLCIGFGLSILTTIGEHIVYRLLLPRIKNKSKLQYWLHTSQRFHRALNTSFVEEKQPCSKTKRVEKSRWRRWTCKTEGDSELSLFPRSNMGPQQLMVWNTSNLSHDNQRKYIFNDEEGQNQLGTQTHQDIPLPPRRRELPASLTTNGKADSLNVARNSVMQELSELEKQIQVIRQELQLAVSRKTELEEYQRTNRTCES

Take `COc1ccc(OCC(c2ccc(OC)cc2)N2Cc3ccccc3C2=O)cc1` (racemic) [EU1180-438, 2-(2-(4-methoxyphenoxy)-1-(4-methoxyphenyl)ethyl)isoindolin-1-one]: in data set [1], the “effect of increasing glycine concentration on inhibition” value is “not altered by increasing glycine concentration”. The “voltage dependence of inhibition (current-voltage relationship)” value in data set [1] (4 μM compound) is recorded as “no effect of holding voltage on EU1180-438 inhibition”. In data set [1] (concentration-response curve, 1000 μM glycine), this compound showed a Slope of 1.24. The “% Inhibition GluN1^FATL/GluN3A” value in data set [1] (pH 6.8) was 72%^a, (n = 7); in data set [1] (pH 7.4), 82%, (n = 18). Further, in data set [1] (pH 6.8), the “maximal inhibition at saturating concentrations” value is 72%. For the same compound, the IC50 in data set [1] (pH 6.8, holding potential −40 mV, read-out: EC50, (95% CI) GluN1^FATL/GluN3A) turned out to be 4.2 µM; in data set [1] (pH 6.8, read-out: IC50), 4.2 µM; in data set [1] (pH 7.4, holding potential −40 mV, read-out: EC50, (95% CI) GluN1^FATL/GluN3A) it was 3.5 µM; in data set [1] (responses activated by 1000 μM glycine, pH 7.4, read-out: IC50) it was 3.5 µM; in data set [2], 5.2 µM. In addition, the inhibition (commonly the relative decrease from the control value, in per cent) at a saturating concentration in data set [1] (pH 7.4) came out at 82%. In data set [1] (read-out: response in the presence of compound, % of control), the remaining activity at 10 µM was 29 ± 4.2%. The same compound came in with a minimum in data set [1] (residual response at saturating concentration, 1000 μM glycine) of 18%. For the same compound, the “inhibition at saturating concentrations” value in data set [2] is reported as 82%. In data set [3], the “average chord conductance of GluN1/GluN3A channels” value is 6.3±0.90 pS. Further, in data set [4], the concentration in solution (solubility at 90 min) was 37 µM (≈ 14.4 µg/mL).
